Reference: patent publication US11571459B2, “Methods for treating cancer using PS-targeting antibodies with immuno-oncology agents” (ONCXERNA THERAPEUTICS, INC., priority 2017, dated 2023)

Key:
[1] = tested on: previously-treated Stage IIIb/IV non-squamous NSCLC; assay: Phase III trial of bavituximab plus docetaxel in NSCLC
Text: (§1) This global, double-blind Phase III trial was initiated in 2012. Selection criteria were for patients with Stage IIIb/IV non-squamous NSCLC who progressed on platinum-doublet chemotherapy (should have progressed on appropriate targeted therapy if known EGFR or ALK mutation), with ECOG PS 0-1 and prior immunotherapy allowed (ECOG is the performance status scale defined by the Eastern Cooperative Oncology Group). […] The primary endpoint was overall survival (OS) and secondary endpoints included objective response rate (Independent Central Review, ICR), progression-free survival (ICR), safety, PK, Quality of Life (LCSS) and exploratory biomarkers, including immune correlates.
(§2) OS was analyzed by VeriStrat subgroups using Kaplan-Meier statistical methods.
(§3) A single cutoff method was first used to assess the patient β2GPI data.
(§4) The initial analyses described above prompted further, extensive analyses of the data in 592 evaluable patients. These analyses used a two cutoff method (Klein & Moeschberger, 2003).
(§5) Archival tissue obtained at the time of diagnosis was requested, but not required, in the Phase III trial of Example X. Formalin-fixed paraffin-embedded (FFPE) slides were stained with antibodies for a panel of lymphoid (or tumor) cell markers, as described in Feng et al., 2015: CD3+, CD8+, FoxP3+, PD-L1+, CD163+ and CK+ (cytokeratin, an epithelial carcinoma marker) using a mutliplex (6-plex) quantitative immunohistochemistry (IHC) assay (OPAL®, PerkinElmer, Waltham, Mass., USA) and using DAPI. The PD-L1 antibody used was the rabbit anti-PD-L1 antibody termed E1L3N® XP® (Cell Signaling Technology, (CST), Danvers, Mass., Catalogue #13684; Mahoney et al., 2015). Baseline PD-L1 expression was retrospectively scored on tumor cells (TC, i.e., CK+) and PD-L1 expressing tumor cells were classified according to their percentage within the total number of tumor cells using established assays and classifications (Fehrenbacher et al., 2016), as follows: TC3≥50%; TC2≥5% and ≤50%; TC1≥1% and <5%; and TC0<1%. Cox regression models for PD-L1 IHC subgroup populations were used for correlation with OS.
(§6) Kaplan-Meier statistical methods and Cox proportional hazard models were utilized to evaluate and contrast the correlation of peripheral (and intratumoral) IFNγ levels with OS based on a data cut from the Phase III trial (Example X) dated Feb.

[2] = tested on: previously-treated Stage IIIb/IV non-squamous NSCLC; settings: in vivo
Text: as §1, §2, §3, §4, §5, §6

[3] = tested on: previously treated non-squamous NSCLC
Procedure: The primary objective of this study was to compare the ORR (CR+PR) among the treatment arms. Secondary objectives included comparing PFS, DR, OS, safety and PK.
Additional blood draws were performed for these patients during Cycles 1 and 2 at specified time points.
Samples from the NSCLC Phase II trial of Example IX (PPHM 0902) were tested using the functional β2GPI assay of Example XII.

PS [4] = settings: in the presence of serum; cited from earlier work
[5] = irrespective of the presence of serum; cited from earlier work
tumors = settings: syngeneic and xenogeneic tumor models; cited from earlier work
[6] = tested on: ABAE cells with exposed PS; assay: Binding of antibody-β2GPI complexes to PS on cells; type: cell-based; settings: first study
Procedure: In analyzing the β2GPI levels required for binding of 3G4-β2GPI complexes to PS on cells, the maximum relative binding in a first study occurred at an antibody concentration of 80 nM, which is a β2GPI to antibody ratio of only 0.5.

[7] = ELISA binding to neutral phospholipids; settings: standard ELISA
PS [8] = assay: ELISA binding to PS-coated plates; settings: phospholipid-coated ELISA plates
Procedure: The 3G4 antibody was produced by immunizing mice with autologous, PS-positive endothelial cells, as reported in Ran et al., 2005. The 3G4 antibody was tested for binding to PS in a standard ELISA in the presence and absence of serum, and was initially characterized as being “serum-independent”, i.e., an antibody that binds to PS in the absence of serum.
In a follow-on study, the binding of the 2aG4 antibody to PS was tested in an ELISA in the presence of varying concentrations of human β2GPI.
These included binding to PS in ELISAs, FACS analyses using PS-positive cells and functional assays in the form of an NFAT surrogate ADCC bioassay (Larson et al., 2013).

β2GPI = target: T1, β2GPI (Homo sapiens, UniProt P02749); assay: Antibody binding to β2GPI (domain mapping)
T1 sequence (P02749 20-345): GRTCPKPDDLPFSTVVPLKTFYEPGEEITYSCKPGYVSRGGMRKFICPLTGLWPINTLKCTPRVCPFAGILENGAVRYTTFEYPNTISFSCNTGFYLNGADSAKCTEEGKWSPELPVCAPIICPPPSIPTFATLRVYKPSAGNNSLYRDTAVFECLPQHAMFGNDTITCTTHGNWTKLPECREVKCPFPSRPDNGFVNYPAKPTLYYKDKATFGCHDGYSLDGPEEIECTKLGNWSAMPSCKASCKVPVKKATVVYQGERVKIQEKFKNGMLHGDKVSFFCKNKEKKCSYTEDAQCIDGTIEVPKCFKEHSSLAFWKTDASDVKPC
Text: In summary, it was shown that the 3G4 antibody binds to β2GPI at domain II and that the lipid binding region of β2GPI domain V is required for co-binding of 3G4 (and ch3G4) and β2GPI to PS exposed on cells. […] Accordingly, antibody and β2GPI co-bind to PS exposed on the outer surfaces of membranes, such as occurs on activated endothelial cells, tumor vascular endothelial cells and tumor cells, as well as on virally infected cells.

[9] = 70% of targeted OS events reached
[10] = about 85% of targeted OS events
[11] = about 85% of targeted OS events, vs docetaxel alone
[12] = functional β2GPI ≥200 μg/mL, 578 evaluable patients
[13] = functional β2GPI ≥200 μg/mL, 592 evaluable patients

bavituximab plus docetaxel: treatment arm: weekly 3 mg/kg bavituximab in combination with docetaxel
median OS ([1]; 12 months follow-up, about 85% of targeted OS events): 10.5 months | mOS [1, 9]: 10.7 months | median PFS [1, 9]: 4.1 months | mOS ([1]; IFNγ high, no subsequent IO): 9.0 months | HR ([1]; IFNγ high, no subsequent IO, vs docetaxel alone): 1.14 | mOS ([1]; IFNγ high, received subsequent IO): 13.9 months | HR ([1]; IFNγ high, received subsequent IO, vs docetaxel alone): 1.0 | mOS ([1]; IFNγ low, no subsequent IO): 10.5 months | HR ([1]; IFNγ low, no subsequent IO, vs docetaxel alone): 1.17 | mOS ([1]; IFNγ low, received subsequent IO): not reached | HR ([1]; IFNγ low, received subsequent IO, vs docetaxel alone): 0.24 | mOS ([1]; VS Good patients (VeriStrat)): 11.2 months | mOS ([1]; VS Poor patients (VeriStrat)): 5.8 months | ORR [1, 10]: 15% | PFS [1, 10]: 4.2 months | HR for OS [1, 11]: 1.06 | HR for PFS [1, 11]: 1.02 | HR for death ([1]; functional β2GPI 200-240 μg/mL): 0.67 | improvement in mOS versus control group ([1]; functional β2GPI 200-240 μg/mL): 5.5 month | mOS ([1]; functional β2GPI 200-240 μg/mL): 13.2 months | HR for death [1, 12]: 0.77 | mOS [1, 12]: 11.9 months | HR for death [1, 13]: 0.81 | mOS [1, 13]: 11.9 months | mOS ([1]; higher PD-L1 expression (TC1/2/3, ≥1%)): 6.0 months | HR, PD-L1 TC0 versus TC1/2/3 within arm ([1]; in vivo): 0.38 | mOS ([1]; negative PD-L1 expression (TC0, <1%)): 11.5 months | HR ([1]; no subsequent IO, vs docetaxel alone): 1.16 | mOS ([1]; patients receiving subsequent IO): has yet to be reached | HR ([1]; patients receiving subsequent IO, vs docetaxel alone): 0.46 | mOS ([1]; patients who did not receive subsequent IO): 9.2 months | mOS ([1]; pre-treatment serum IFNγ high (≥ median 0.093 μg/mL)): 9.2 months | mOS ([1]; pre-treatment serum IFNγ low (< median 0.093 μg/mL)): 11.9 months | Grade 3 or higher adverse events [2]: 68% | HR for OS versus combined arm ([3]; 3 mg/kg): 0.66 | Overall Survival, Median ([3]; ITT, all with docetaxel, Bavituximab arm 3 mg/kg): 11.7 Months | Grade 5 (fatal) events ([3]; bavituximab 3 mg/kg, combined control = placebo or 1 mg/kg bavituximab, all with docetaxel): 5.0%

B1: 3G4: mouse IgG3 monoclonal PS-targeting antibody, hybridoma ATCC PTA 4545 (antibody, V domains shown)
VH: EVQLQQSGPELEKPGASVKLSCKASGYSFTGYNMNWVKQSHGKSLEWIGHIDPYYGDTSYNQKFRGKATLTVDKSSSTAYMQLKSLTSEDSAVYYCVKGGYYGHWYFDVWGAGTTVTVSSATTTAPSVYPLVP
VL: DIQMTQSPSSLSASLGERVSLTCRASQDIGSSLNWLQQGPDGTIKRLIYATSSLDSGVPKRFSGSRSGSDYSLTISSLESEDFVDYYCLQYVSSPPTFGAGTKLELKRADAAPTVFIFGRIP
binding to anionic phospholipids (PS, PI, PA, PG, CL) (PS [4]): bind strongly to anionic phospholipids | binding to neutral phospholipids PC, SM or PE [5]: no detectable binding | anti-tumor effects (tumors): caused tumor vascular injury, localized thrombosis, tumor necrosis and retarded tumor growth | toxicity (tumors): no evidence of toxicity | antibody concentration at maximum relative binding to PS on cells [6]: 80 nM | molar ratio of β2GPI to antibody for optimal antibody binding [6]: between 0.125, 0.5 and 2 | β2GPI to antibody ratio at maximum relative binding ([6]; antibody 80 nM): 0.5 | reaction with neutral phospholipids, PC and SM [7]: did not react | binding to phospholipids in standard ELISA (PS [8]): bound to PS, CL, PI (phosphatidylinositol), PA (phosphatidic acid) and PG (phosphatidylglycerol) | β2GPI domain bound (β2GPI): bind to β2GPI at domain II
